Laboratory results as given in PMC2063102 (British Journal of Cancer, 1998).
Values joined by “and” are separate entries in the source; they are usually repeats but may differ in a detail not shown here. Equal entries are not always repeated.

Columns and labels:
Type in all cases: in vivo, C3H/HeN mice
[1] = system: MDAH-MCa-4 tumours; assay: Tumour growth delay (time to reach 13 mm, treated minus control)
[2] = system: MDAH-MCa-4 tumours; assay: Tumour blood flow by 99mTc pertechnetate wash-out (clearance rate constant k); conditions: for time course of tumour blood flow inhibition: agent alone: 5-HT 700 µmol kg-1, DMXAA 70 µmol kg-1
[3] = system: MDAH-MCa-4 tumours; assay: Tumour necrosis / residual viable tissue scored histologically (H&E sections)

| SMILES | dose-modifying factor (DMF) for growth delay (DMXAA dose for 5-day growth delay) ([1]; 5-HT 700 µmol kg-1 co-administered with DMXAA) | Tumour growth delay, Expt 2 ([1]; single agent i.p.: bioreductive drug at its MTD, DMXAA 80 µmol kg-1, 5-HT 700 µmol kg-1, mean ± s.e.m.) | dose-modifying factor (DMF) for blood flow inhibition by DMXAA ([2]; 5-HT 700 µmol kg-1 co-administered with DMXAA, at 4 h) | effect on tumour blood flow at 4 h ([2]; 5-HT alone 700 µmol kg-1 i.p.) | time course of tumour blood flow inhibition [2] | dose-modifying factor (DMF) for necrosis (DMXAA dose for 50% reduction of viable tissue) ([3]; 5-HT 700 µmol kg-1 co-administered with DMXAA, at 12 h) | necrotic fraction ([3]; 5-HT alone 700 µmol kg-1, 12 h (control 8.8%)) | predicted growth delay (from regrowth of residual viable tissue) ([1]; mouse, in vivo) | time to maximal tumour blood flow inhibition ([2]; DMXAA 20 µmol kg-1 co-administered with 5-HT 700 µmol kg-1) | DMXAA dose giving 50% inhibition of tumour blood flow ([2]; DMXAA alone i.p., 4 h after administration) | necrosis ([3]; DMXAA 60 µmol kg-1 and above co-administered with 5-HT 700 µmol kg-1, 12 h) | threshold dose for the necrotizing effect ([3]; DMXAA alone i.p., 12 h) | doubling time of fraction of viable tissue after treatment ([3]; between 1 and 4 days after DMXAA 80 µmol kg-1) | DMF relative to DMXAA alone (5-day growth delay) ([1]; mouse, in vivo) | factor lowering the DMXAA dose required for a 5-day growth delay ([1]; mouse, in vivo) | Tumour growth delay (one experiment only, column not discernible) ([1]; mouse, in vivo, ip) |
| --- | --- | --- | --- | --- | --- | --- | --- | --- | --- | --- | --- | --- | --- | --- | --- | --- |
| NCCc1c[nH]c2ccc(O)cc12 [5-HT, 5-hydroxytryptamine] | 2.0 | -2.9 + 0.7 days | > 3 | little effect | weak and transient inhibition | 2.3 | 38% | – | – | – | – | – | – | – | – | – |
| Cc1ccc2c(=O)c3cccc(CC(=O)O)c3oc2c1C [DMXAA, 5,6-dimethylxanthenone-4-acetic acid] | – | – | – | – | progressive inhibition over 4 h with no recovery by 24 h | – | – | 6.0 days and 5.8 days | ≤ 1 h | 60 µmol/kg | > 99% | approximately 60 µmol kg-1 | 1.0 days | – | – | – |
| Nc1n[n+]([O-])c2ccccc2[n+]1[O-] [TIRA, tirapazamine] | – | – | – | – | – | – | – | – | – | – | – | – | – | 2.6 | 1.8 | 2.7 ± 1.4 days |
